We go through twelve compounds from ChEMBL document CHEMBL5046260, “Anti-inflammatory Dimeric Tetrahydroxanthones from an Endophytic Muyocopron laterale” (J Nat Prod, 2022).

Assay [1] deals with RAW264.7. Description: Antiinflammatory activity in mouse RAW 264.7 cells assessed as inhibition of LPS-induced NO production measured after 24 hrs by Griess assay. It counts as functional, cell-based. Conditions: RAW264.7, 24 h. On the technique in general: The Griess reaction detects nitrite, a stable product of nitric oxide.
The subject of assay [2] is RAW264.7. Description: Antiinflammatory activity in mouse RAW 264.7 cells assessed as inhibition of LPS-induced NO production at 10 uM measured after 24 hrs by Griess assay relative to control. It counts as functional. Also noted: scale not given: the % may be the effect or the level left.

On to `CO[C@H]1CC(=O)O[C@@H]1[C@@]1(C)CC(=O)c2c(cc(C)c(-c3c(C)cc4c(c3O)C(=O)C3=C(O)C[C@H](OC)[C@H](O)[C@]3(C)O4)c2O)O1`, for which the IC50 – broadly, the concentration that gives 50% inhibition – with RAW264.7 [1] is over 10 µM. Further, the Activity with RAW264.7 [2] was 13.2%.
The corresponding values for `CO[C@H]1CC(=O)O[C@@H]1[C@@]1(C)CC(=O)c2c(cc(C)c(-c3c(C)cc4c(c3O)C(=O)C[C@@](C)([C@H]3OC(=O)C[C@@H]3OC)O4)c2O)O1` are over 10 µM and 16.2%.
On to `CO[C@H]1CC(=O)O[C@@H]1[C@]1(C)CC(=O)c2c(O)cc(C)c(-c3c(C)cc4c(c3O)C(=O)C3=CC[C@H](OC)[C@H](O)[C@]3(C)O4)c2O1`, for which the IC50 in the assay on RAW264.7 [1] is over 10 µM. Further, in the assay on RAW264.7 [2], the Activity is reported as 33.2%.
For the compound `CO[C@H]1CC(=O)O[C@@H]1[C@]1(C)CC(=O)c2c(cc(C)c(-c3c(C)cc4c(c3O)C(=O)C[C@@](C)([C@H]3OC(=O)C[C@@H]3OC)O4)c2O)O1`, the IC50 in the assay on RAW264.7 [1] is over 10 µM. Besides, the Activity with RAW264.7 [2] is 5.9%.
For the compound `CO[C@H]1CC(=O)O[C@@H]1[C@@]1(C)CC(=O)c2c(cc(C)c(-c3c(C)cc4c(c3O)C(=O)C3=CC[C@H](OC)[C@H](O)[C@]3(C)O4)c2O)O1`, the IC50 in the assay on RAW264.7 [1] amounted to 5.1 µM. In the assay with RAW264.7 [2], the Activity turned out to be 84.4%.
As to `CO[C@H]1CC(=O)O[C@@H]1[C@]1(C)CC(=O)c2c(cc(C)c(-c3c(C)cc4c(c3O)C(=O)C3=C(O)C[C@H](OC)[C@H](O)[C@]3(C)O4)c2O)O1`, the IC50 with RAW264.7 [1] was over 10 µM. Also, the Activity in the assay with RAW264.7 [2] amounted to 36.6%.
On to `CO[C@H]1CC(=O)O[C@@H]1[C@]1(C)CC(=O)c2c(O)cc(C)c(-c3c(C)cc4c(c3O)C(=O)C3=C(O)C[C@H](OC)[C@H](O)[C@]3(C)O4)c2O1`, for which, in the assay with RAW264.7 [1], the IC50 is over 10 µM. In addition, the Activity in the assay on RAW264.7 [2] is 52.7%.
`CO[C@H]1CC(=O)O[C@@H]1[C@@]1(C)CC(=O)c2c(cc(C)c(-c3c(C)cc(O)c4c3O[C@](C)([C@H]3OC(=O)C[C@@H]3OC)CC4=O)c2O)O1`: the IC50 in the assay on RAW264.7 [1] is over 10 µM. Moreover, the Activity with RAW264.7 [2] is 7.6%.
Turning to `CO[C@H]1CC(=O)O[C@@H]1[C@@]1(C)CC(=O)c2c(cc(C)c(-c3c(C)cc4c(c3O)C(=O)C[C@](C)([C@H]3OC(=O)C[C@@H]3OC)O4)c2O)O1`, the IC50 with RAW264.7 [1] amounted to 5.2 µM. In addition, in the assay on RAW264.7 [2], the Activity amounted to 72%.
On to `CO[C@H]1CC=C2C(=O)c3c(cc(C)c(-c4c(C)cc5c(c4O)C(=O)C4=C(O)C[C@H](OC)[C@H](O)[C@]4(C)O5)c3O)O[C@@]2(C)[C@H]1O`, for which, in the assay on RAW264.7 [1], the IC50 came out at 1.3 µM. Moreover, the Activity in the assay with RAW264.7 [2] worked out at 89.8%.
The corresponding values for `COc1cc(/C=C/C(=O)CC(=O)/C=C/c2ccc(O)c(OC)c2)ccc1O` [CURCUMIN] are 2.2 µM and 79.2%.
The corresponding values for `CO[C@H]1CC(O)=C2C(=O)c3c(cc(C)c(-c4c(C)cc5c(c4O)C(=O)C4=C(O)C[C@H](OC)[C@H](O)[C@]4(C)O5)c3O)O[C@@]2(C)[C@H]1O` are over 10 µM and 52.7%.
